Assay results from ChEMBL document CHEMBL4725221, “Thiazoles, Their Benzofused Systems, and Thiazolidinone Derivatives: Versatile and Promising Tools to Combat Antibiotic Resistance” (J Med Chem, 2020).
Converted amounts (≈) assume the structure as drawn. Values belong to the compound of their own block, whether it stands above or below them.

Key:
Staphylococcus aureus [1] = experiment: Antibacterial activity against Staphylococcus aureus; format: functional
Escherichia coli [2] = experiment: Antibacterial activity against Escherichia coli; format: functional
Raoultella planticola = experiment: Antibacterial activity against Klebsiella planticola; format: functional
Staphylococcus aureus [3] = experiment: Antibacterial activity against Staphylococcus aureus MLS16; format: functional
Pseudomonas aeruginosa [4] = experiment: Antibacterial activity against Pseudomonas aeruginosa; format: functional
Bacillus subtilis [5] = experiment: Antibacterial activity against Bacillus subtilis; format: functional
Micrococcus luteus = experiment: Antibacterial activity against Micrococcus luteus; format: functional
Pseudomonas aeruginosa [6] = experiment: Antibacterial activity against Pseudomonas aeruginosa MTCC 2453 after 7 days by two-fold serial dilution method; format: functional; conditions: MTCC 2453, 168 h, time 7 day
Staphylococcus aureus [7] = experiment: Antibacterial activity against Staphylococcus aureus MTCC 121 after 7 days by two-fold serial dilution method; format: functional; conditions: MTCC 121, 168 h, time 7 day
Escherichia coli [8] = experiment: Antibacterial activity against Escherichia coli MTCC 40 after 7 days by two-fold serial dilution method; format: functional; conditions: MTCC 40, 168 h, time 7 day
Bacillus subtilis [9] = experiment: Antibacterial activity against Bacillus subtilis […] after 7 days by two-fold serial dilution method; format: functional; conditions: 168 h, time 7 day
Escherichia coli [10] = experiment: Antibacterial activity against Escherichia coli AG102; format: functional
Escherichia coli [11] = experiment: Antibacterial activity against Escherichia coli AG102 in presence of ciprofloxacin; format: functional
Staphylococcus aureus [12] = experiment: Antibacterial activity against Staphylococcus aureus ATCC 25923 by CLSI protocol based microdilution method; format: functional, organism-based
Staphylococcus aureus [13] = experiment: Antibacterial activity against Staphylococcus aureus ATCC 6538 by CLSI protocol based microdilution method; format: functional, organism-based
Enterococcus faecalis [14] = experiment: Antibiofilm activity against Enterococcus faecalis; format: functional
Enterococcus faecalis [15] = experiment: Antibacterial activity against Enterococcus faecalis; format: functional
Staphylococcus aureus [16] = experiment: Antibacterial activity against Staphylococcus aureus ATCC 49444 after 24 hrs by CLSI protocol based cup-plate agar diffusion method; format: functional
Pseudomonas aeruginosa [17] = experiment: Antibacterial activity against Pseudomonas aeruginosa ATCC 27853 after 24 hrs by CLSI protocol based cup-plate agar diffusion method; format: functional
Listeria monocytogenes = experiment: Antibacterial activity against Listeria monocytogenes ATCC 19115 after 24 hrs by CLSI protocol based cup-plate agar diffusion method; format: functional
Salmonella typhimurium = experiment: Antibacterial activity against Salmonella typhimurium ATCC 14028 after 24 hrs by CLSI protocol based cup-plate agar diffusion method; format: functional, Salmonella enterica subsp. enterica serovar Typhimurium; conditions: Salmonella enterica
[18] = test system: Staphylococcus saprophyticus; experiment: Antibacterial activity against Staphylococcus saprophyticus; format: functional

MIC (Staphylococcus aureus [1]): 7.8 µg/mL (≈ 11.7 µM)
MIC (Escherichia coli [2]): 7.8 µg/mL (≈ 11.7 µM)
MIC (Staphylococcus aureus [3]): 7.8 µg/mL (≈ 11.7 µM)
MIC (Pseudomonas aeruginosa [4]): > 125 µg/mL
MIC (Bacillus subtilis [5]): 15.6 µg/mL (≈ 23.5 µM)
MIC (Micrococcus luteus): > 125 µg/mL
SMILES: O=c1oc2ccc3ccccc3c2cc1-c1csc(N/N=C/c2cn(-c3nc4ccccc4s3)nc2-c2cc3ccccc3oc2=O)n1
MIC (Raoultella planticola): 7.8 µg/mL (≈ 11.7 µM)

MIC (Pseudomonas aeruginosa [6]): 6.25 µg/mL (≈ 12.7 µM)
MIC (Staphylococcus aureus [7]): 6.25 µg/mL (≈ 12.7 µM)
MIC (Escherichia coli [8]): 6.25 µg/mL (≈ 12.7 µM)
MIC (Bacillus subtilis [9]): 1.56 µg/mL (≈ 3.17 µM)
SMILES: COc1cccc(/C=C2\SC(c3ccccc3)N(NC(=O)c3ccc(-c4ccccc4)cc3)C2=O)c1 (stereo unspecified)

MIC (Staphylococcus aureus [1]): 7.8 µg/mL (≈ 13.5 µM)
MIC (Escherichia coli [2]): 7.8 µg/mL (≈ 13.5 µM)
MIC (Staphylococcus aureus [3]): 7.8 µg/mL (≈ 13.5 µM)
MIC (Pseudomonas aeruginosa [4]): 7.8 µg/mL (≈ 13.5 µM)
MIC (Bacillus subtilis [5]): 7.8 µg/mL (≈ 13.5 µM)
MIC (Micrococcus luteus): 7.8 µg/mL (≈ 13.5 µM)
SMILES: COc1ccc(-c2csc(N/N=C/c3cn(-c4nc5ccccc5s4)nc3-c3cc4ccccc4oc3=O)n2)cc1
MIC (Raoultella planticola): 7.8 µg/mL (≈ 13.5 µM)

MIC (Pseudomonas aeruginosa [6]): 6.25 µg/mL (≈ 13.5 µM)
MIC (Staphylococcus aureus [7]): 6.25 µg/mL (≈ 13.5 µM)
MIC (Escherichia coli [8]): 6.25 µg/mL (≈ 13.5 µM)
MIC (Bacillus subtilis [9]): 3.12 µg/mL (≈ 6.74 µM)
SMILES: O=C(NN1C(=O)/C(=C/c2ccccc2)SC1c1ccccc1)c1ccc(-c2ccccc2)cc1 (stereo unspecified)

MIC (Staphylococcus aureus [1]): > 125 µg/mL
MIC (Escherichia coli [2]): 7.8 µg/mL (≈ 10.1 µM)
MIC (Staphylococcus aureus [3]): 7.8 µg/mL (≈ 10.1 µM)
MIC (Pseudomonas aeruginosa [4]): > 125 µg/mL
MIC (Bacillus subtilis [5]): 3.9 µg/mL (≈ 5.05 µM)
MIC (Micrococcus luteus): > 125 µg/mL
SMILES: O=c1oc2c(Br)cc(Br)cc2cc1-c1csc(N/N=C/c2cn(-c3nc4ccccc4s3)nc2-c2cc3ccccc3oc2=O)n1
MIC (Raoultella planticola): 7.8 µg/mL (≈ 10.1 µM)

MIC (Pseudomonas aeruginosa [6]): 6.25 µg/mL (≈ 11.5 µM)
MIC (Staphylococcus aureus [7]): 3.12 µg/mL (≈ 5.76 µM)
MIC (Escherichia coli [8]): 12.5 µg/mL (≈ 23.1 µM)
MIC (Bacillus subtilis [9]): 6.25 µg/mL (≈ 11.5 µM)
SMILES: O=C(NN1C(=O)/C(=C/c2cccc(Br)c2)SC1c1ccccc1)c1ccc(-c2ccccc2)cc1 (stereo unspecified)

MIC (Escherichia coli [10]): 256 µg/mL (≈ 743 µM)
MIC (Escherichia coli [11]): 0.016 µg/mL
SMILES: O=C(Nc1ccc(Cc2nc3ccccc3s2)cc1)c1ccccc1

MIC (Escherichia coli [10]): 128 µg/mL (≈ 353 µM)
MIC (Escherichia coli [11]): 0.03 µg/mL
SMILES: O=C(Nc1ccc(Cc2nc3ccccc3s2)cc1)c1ccc(F)cc1

MIC (Pseudomonas aeruginosa [6]): 3.12 µg/mL (≈ 5.94 µM)
MIC (Staphylococcus aureus [7]): 6.25 µg/mL (≈ 11.9 µM)
MIC (Escherichia coli [8]): 12.5 µg/mL (≈ 23.8 µM)
MIC (Bacillus subtilis [9]): 6.25 µg/mL (≈ 11.9 µM)
SMILES: O=C(NN1C(=O)/C(=C/c2cccc([N+](=O)[O-])c2)SC1c1cccc(F)c1)c1ccc(-c2ccccc2)cc1 (stereo unspecified)

IC50 (Staphylococcus aureus [12]): 0.2 µg/mL (≈ 0.493 µM)
IC50 (Staphylococcus aureus [13]): 21 µg/mL (≈ 51.8 µM)
SMILES: COCCn1cc(-c2nc(-c3cn(C)c4ccccc34)cs2)c2cc(F)ccc21

MIC (Pseudomonas aeruginosa [6]): 12.5 µg/mL (≈ 26 µM)
MIC (Staphylococcus aureus [7]): 6.25 µg/mL (≈ 13 µM)
MIC (Escherichia coli [8]): 6.25 µg/mL (≈ 13 µM)
MIC (Bacillus subtilis [9]): 3.12 µg/mL (≈ 6.49 µM)
SMILES: O=C(NN1C(=O)/C(=C/c2ccccc2)SC1c1cccc(F)c1)c1ccc(-c2ccccc2)cc1 (stereo unspecified)

MIC (Enterococcus faecalis [15]): 250 µg/mL (≈ 549 µM)
SMILES: NC(=O)c1cc(-c2csc(-c3cccc(-c4csc(-c5ccccc5)n4)c3)n2)ccc1O
MBIC (Enterococcus faecalis [14]): 0.008 mg/mL

MIC (Staphylococcus aureus [1]): 7.8 µg/mL (≈ 12.5 µM)
MIC (Escherichia coli [2]): 7.8 µg/mL (≈ 12.5 µM)
MIC (Staphylococcus aureus [3]): 7.8 µg/mL (≈ 12.5 µM)
MIC (Pseudomonas aeruginosa [4]): > 125 µg/mL
MIC (Bacillus subtilis [5]): 3.9 µg/mL (≈ 6.23 µM)
MIC (Micrococcus luteus): 7.8 µg/mL (≈ 12.5 µM)
SMILES: O=c1oc2ccccc2cc1-c1nn(-c2nc3ccccc3s2)cc1/C=N/Nc1nc(-c2ccc(Br)cc2)cs1
MIC (Raoultella planticola): 7.8 µg/mL (≈ 12.5 µM)

MIC (Escherichia coli [10]): 512 µg/mL (≈ 1430 µM)
MIC (Escherichia coli [11]): 0.004 µg/mL
SMILES: Cc1ccc(CC(=O)Nc2ccc(-c3nc4ccccc4s3)cc2)cc1

MIC (Escherichia coli [10]): 256 µg/mL (≈ 680 µM)
MIC (Escherichia coli [11]): 0.03 µg/mL
SMILES: O=C(Cc1ccc(F)cc1)Nc1ccc(Cc2nc3ccccc3s2)cc1

MIC (Escherichia coli [10]): 256 µg/mL (≈ 684 µM)
MIC (Escherichia coli [11]): 0.008 µg/mL
SMILES: COc1ccc(CC(=O)Nc2ccc(-c3nc4ccccc4s3)cc2)cc1

MIC (Staphylococcus aureus [16]): 62.5 µg/mL (≈ 148 µM)
MIC (Pseudomonas aeruginosa [17]): 1.9 µg/mL (≈ 4.5 µM)
MIC (Listeria monocytogenes): 1.9 µg/mL (≈ 4.5 µM)
MIC (Salmonella typhimurium): 62.5 µg/mL (≈ 148 µM)
SMILES: Cc1nc(-c2ccccc2)sc1-c1nnc(S)n1/N=C\c1ccc([N+](=O)[O-])cc1

MIC (Staphylococcus aureus [16]): 15.6 µg/mL (≈ 40.7 µM)
MIC (Pseudomonas aeruginosa [17]): 1.9 µg/mL (≈ 4.95 µM)
MIC (Listeria monocytogenes): 1.9 µg/mL (≈ 4.95 µM)
MIC (Salmonella typhimurium): 62.5 µg/mL (≈ 163 µM)
SMILES: Cc1nc(-c2ccccc2)sc1-c1nnc(S)n1/N=C\c1cccs1

MIC (Pseudomonas aeruginosa [6]): 1.56 µg/mL (≈ 2.66 µM)
MIC (Staphylococcus aureus [7]): 1.56 µg/mL (≈ 2.66 µM)
MIC (Escherichia coli [8]): 3.12 µg/mL (≈ 5.32 µM)
MIC (Bacillus subtilis [9]): 1.56 µg/mL (≈ 2.66 µM)
SMILES: O=C(NN1C(=O)/C(=C/c2cccc([N+](=O)[O-])c2)SC1c1cccc(Br)c1)c1ccc(-c2ccccc2)cc1 (stereo unspecified)

MIC (Enterococcus faecalis [15]): 16 µg/mL (≈ 35.8 µM)
SMILES: c1ccc(-c2nc(-c3cccc(-c4nc(-c5cccc6ccccc56)cs4)c3)cs2)cc1
MBIC (Enterococcus faecalis [14]): 0.004 mg/mL

MIC (Staphylococcus aureus [16]): 31.2 µg/mL (≈ 76.6 µM)
MIC (Pseudomonas aeruginosa [17]): 1.9 µg/mL (≈ 4.66 µM)
MIC (Listeria monocytogenes): 1.9 µg/mL (≈ 4.66 µM)
MIC (Salmonella typhimurium): 62.5 µg/mL (≈ 153 µM)
SMILES: COc1ccccc1/C=N\n1c(S)nnc1-c1sc(-c2ccccc2)nc1C

MIC (Pseudomonas aeruginosa [6]): 6.25 µg/mL (≈ 10.9 µM)
MIC (Staphylococcus aureus [7]): 6.25 µg/mL (≈ 10.9 µM)
MIC (Escherichia coli [8]): 12.5 µg/mL (≈ 21.7 µM)
MIC (Bacillus subtilis [9]): 6.25 µg/mL (≈ 10.9 µM)
SMILES: O=C(NN1C(=O)/C(=C/c2ccc(Cl)cc2)SC1c1cccc(Br)c1)c1ccc(-c2ccccc2)cc1 (stereo unspecified)

MIC (Enterococcus faecalis [15]): 32 µg/mL (≈ 74.2 µM)
MIC [18]: 2 µg/mL (≈ 4.64 µM)
SMILES: Clc1ccc(-c2csc(-c3cccc(-c4csc(-c5ccccc5)n4)c3)n2)cc1
MBIC (Enterococcus faecalis [14]): 0.016 mg/mL

MIC (Staphylococcus aureus [16]): 31.2 µg/mL (≈ 68.4 µM)
MIC (Pseudomonas aeruginosa [17]): 1.9 µg/mL (≈ 4.16 µM)
MIC (Listeria monocytogenes): 1.9 µg/mL (≈ 4.16 µM)
MIC (Salmonella typhimurium): 62.5 µg/mL (≈ 137 µM)
SMILES: Cc1nc(-c2ccccc2)sc1-c1nnc(S)n1/N=C\c1ccc(Br)cc1

IC50 (Staphylococcus aureus [12]): 1.2 µg/mL (≈ 2.87 µM)
IC50 (Staphylococcus aureus [13]): 11.5 µg/mL (≈ 27.5 µM)
SMILES: COCCn1cc(-c2nc(-c3cn(C)c4ccccc34)cs2)c2cc(OC)ccc21

IC50 (Staphylococcus aureus [12]): 1.8 µg/mL (≈ 3.8 µM)
IC50 (Staphylococcus aureus [13]): 6.9 µg/mL (≈ 14.6 µM)
SMILES: COCCn1cc(-c2csc(-c3cn(C(=O)OC(C)(C)C)c4ccccc34)n2)c2ccccc21

IC50 (Staphylococcus aureus [12]): 2.5 µg/mL (≈ 5.36 µM)
SMILES: COCCn1cc(-c2csc(-c3cn(C)c4ccc(Br)cc34)n2)c2ccccc21
